Earlier results in patent US5614213A, “Use of estriol for treatment of climacteric osteoporosis” (priority 1992, dated 1997).

Key:
[1] = system: osteoporosis; settings: hormone replacement; cited from earlier work
[2] = system: ovulation in women; settings: lower dosages than 5 mg/day; cited from earlier work
[3] = system: arteriosclerotic vascular changes; settings: hormone replacement; cited from earlier work

| Structure (SMILES) | prevention of osteoporosis in the climacteric [1] | suppression of ovulation in women [2] | effect on arteriosclerotic vascular changes [3] |
| --- | --- | --- | --- |
| C[C@]12CC[C@@H]3c4ccc(O)cc4CC[C@H]3[C@@H]1CC[C@@H]2O [estradiol] | can prevent advancing osteoporosis in the climacteric | clearly possible | can slow the advance of arteriosclerotic vascular changes |
| C[C@]12CC[C@@H]3c4ccc(O)cc4CC[C@H]3[C@@H]1CCC2=O [estrone] | can prevent advancing osteoporosis in the climacteric | – | can slow the advance of arteriosclerotic vascular changes |
